The text below walks through data of patent publication US5698547A, “Cephalosporin antibiotics” (Microcide Pharmaceuticals, Inc., priority 1995, dated 1997).

In brackets after ≈: the same amount, converted by molar mass. Counter-ions that a name gives are not always drawn.

For the assay, the system named is S. aureus Col (Meth^R) (lac^-). Description: MIC by agar dilution, S. aureus Col (Meth^R) (lac^-). In kind it is cell-based. Conditions: Staphylococcus aureus; agar dilution; S. aureus Col (Meth^R) (lac^-); read-out: MIC. The method, then:
The compounds of the invention were evaluated against several β-lactamresistant bacteria strains by determining the minimum inhibitory concentration (MIC, μg/ml) of each compound with respect to each strain. The MIC, the lowest concentration of antibiotic which inhibits growth of the test organism, was determined by the agar dilution method.
To determine the MIC for bacterial isolates, the test compound was incorporated in a series of two-fold dilutions into liquified Mueller-Hinton agar. Upon solidification, a number of different bacterial strains were spot inoculated with a replicating device onto the agar surface. […] The procedures used in these studies have been standardized by the National Committee for Clinical Laboratory Standards (NCCLS), as per the NCCLS publication entitled METHODS FOR DILUTION ANTIMICROBIAL SUSCEPTIBILITY TESTS (1991), which is incorporated herein by reference.
Aliquots of antimicrobial agents were prepared in phosphate buffered saline (PBS) at pH 7.2. Tween 20 or DMSO was used as a solubilizing vehicle as needed. Standard methods of vortexing, sonicating and gentle heat were used to facilitate solubilizing the test agent. Typically, the concentration of the stock solution was 10× that of the highest drug concentration tested. A 1.28 mg/mL stock solution was used with a subsequent highest working concentration of 128 μg/mL. Serial two-fold dilutions were done through ≤0.25 μg/mL. Each drug level was tested in duplicate. Two-fold drug dilutions were done in sterile 50 mL tubes with a final drug volume of 5 mL. Upon the addition of 45 mL of molten agar, a 10-fold dilution resulted. Two, 25 mL. plates were then poured into 15×150 mm square Petri plates with grids and allowed to harden.
A control plate with a reference drug, either cefotaxime, vancomycin or imipenem, was used as the positive growth control. Stock concentrations of reference antibiotics were prepared and frozen at -80° C. Upon preparation, the control plates were sealed and stored in the refrigerator for up to 1 week prior to use; however, imipenem control plates had to be prepared just prior to use. All test plates were used within 24 hours of preparation.
Satisfactory results were obtained where the inoculum contained about 10^4 colony forming units (cfu) ±0.5 logs. Starting with pure cultures of the test isolates on agar plates, a few isolated colonies were transferred to a tube of nutrient broth and allowed to grow 4-6 hours at 35°-36° C. to reach log-phase growth. Dropwise addition of the broth culture to PBS was done to match a 0.5 McFarland turbidity standard equal to 10^8 cfu/mL. This was further diluted ten-fold in PBS to reach a working inoculum concentration of 10^7 cfu/mL. When 1 μL of the working inoculum was applied to the agar surface a concentration of about 10^4 cfu per spot was obtained.
Disposable sterile 1 μL loops were used to inoculate test plates, with each isolate in a designated grid on the agar plate. An alternate method of inoculation involved the use of a replica plater, a device with 48 steel pins allowing the simultaneous inoculation of multiple isolates. After the spots had dried, the plates were incubated at 35°-36° C. for 16-20 hours. Endpoints were assessed as the minimum inhibitory concentration (MIC) of antimicrobial agent.
The novel agents of this invention are notable for their enhanced activity against S. aureus Col and Enterococci (E. faecium and E. faecalis). The S. aureus Col strain is a high-level PBP2a producer, whereas S. aureus Col 8A, its isogenic partner, lacks PBP2a. […] Thus, the compounds of the present invention are effective against PBP2a-producing bacteria.
A general note: In agar dilution the substance is mixed into plates at graded concentrations.
For the compound `O=C(Cc1ccccc1)N[C@@H]1C(=O)N2C(C(=O)O)=C(Sc3ccc(CSc4ncn[nH]4)cc3)CS[C@H]12` [Cmpd 65, (7R)-7-[(Phenylacetyl)amino]-3-(4-(1,2,4-triazol-5-ylthiomethyl)phenylthio)-3-cephem-4-carboxylic acid], the MIC (usually the smallest concentration in the dilution series that meets the test's criterion for growth inhibition) came out at 8 mg/L (≈ 14.8 µM). To `O=C(COc1ccc(Cl)cc1)N[C@@H]1C(=O)N2C(C(=O)O)=C(Sc3cc(Cl)ccc3Cl)CS[C@H]12` [Cmpd 31, (7R)-7-[(p-Chlorophenoxyacetyl)amino]-3-(2,5-dichlorophenylthio)-3-cephem-4-carboxylic acid] belongs 1 mg/L (≈ 1.83 µM). As for `NCc1ccccc1CC(=O)N[C@@H]1C(=O)N2C(C(=O)O)=C(Sc3ccnn3-c3ccccc3)CS[C@H]12` [Cmpd 96, (7R)-7-[((2-aminomethylphenyl)acetyl)amino]-3-(1-N-phenylpyrazol-5-ylthio)-3-cephem-4-carboxylic acid], the MIC turned out to be 8 mg/L (≈ 15.3 µM). In the case of `CN(C)C(SCc1ccccc1SC1=C(C(=O)[O-])N2C(=O)[C@@H](NC(=O)Cc3ccccc3)[C@H]2SC1)=[N+](C)C` [Cmpd 69, (7R)-7-[(Phenylacetyl)amino]-3-(2-tetramethylisothiouroniummethylphenylthio)-3-cephem-4-carboxylate, inner salt] it was 4 mg/L; in that of `O=C(Cc1ccccc1)N[C@@H]1C(=O)N2C(C(=O)O)=C(Sc3cnnn3-c3ccccc3)CS[C@H]12` [Cmpd 91, (7R)-7-[(Phenylacetyl)amino]-3-(1-N-phenyl-1,2,3-triazol-5-ylthio)-3-cephem-4-carboxylic acid], 4 mg/L (≈ 8.1 µM). Consider `O=C(Cc1ccccc1)N[C@@H]1C(=O)N2C(C(=O)O)=C(Sc3ccccc3-c3cccs3)CS[C@H]12` [Cmpd 37, (7R)-7-[(Phenylacetyl)amino]-3-(2-(2-thienyl)phenylthio)-3-cephem-4-carboxylic acid], for which the MIC was determined as 2 mg/L (≈ 3.93 µM). Consider `N=C(N)SCc1ccccc1SC1=C(C(=O)O)N2C(=O)[C@@H](NC(=O)Cc3ccccc3)[C@H]2SC1` [Cmpd 64, (7R)-7-[(Phenylacetyl)amino]-3-(2-isothiouroniummethylphenylthio)-3-cephem-4-carboxylate, inner salt], for which the MIC came out at 0.5 mg/L. Turning to `O=C(Cc1ccccc1)N[C@@H]1C(=O)N2C(C(=O)O)=C(Sc3ccc(-c4ccccc4)cc3)CS[C@H]12` [Cmpd 8, (7R)-7-[(Phenylacetyl)amino]-3-(4-biphenylthio)-3-cephem-4-carboxylic acid], the MIC came out at 4 mg/L (≈ 7.96 µM).

In the case of `O=C(Cc1ccccc1)N[C@@H]1C(=O)N2C(C(=O)O)=C(Sc3ccc(Cl)cc3Cl)CS[C@H]12` [Cmpd 28, (7R)-7-[(Phenylacetyl)amino]-3-(2,4-dichlorophenylthio)-3-cephem-4-carboxylic acid], the MIC came to 1 mg/L (≈ 2.02 µM). For the compound `O=C(Cc1cccs1)N[C@@H]1C(=O)N2C(C(=O)O)=C(Sc3ccccc3I)CS[C@H]12` [Cmpd 25, (7R)-7-[(2-Thienylacetyl)amino]-3-(o-iodophenylthio)-3-cephem-4-carboxylicacid], the MIC was found to be 1 mg/L (≈ 1.79 µM).

As for `O=C(Cc1ccccc1)N[C@@H]1C(=O)N2C(C(=O)O)=C(Sc3ccc(CSC4=NCCN4)cc3I)CS[C@H]12` [Cmpd 59, (7R)-7-[(Phenylacetyl)amino]-3-(4-(2-imidazolin-2-ylthiomethyl)-2-iodophenylthio)-3-cephem-4-carboxylic acid], the MIC was 2 mg/L (≈ 3 µM). Turning to `N=C(N)SCc1ccc(SC2=C(C(=O)O)N3C(=O)[C@@H](NC(=O)Cc4ccccc4)[C@H]3SC2)cc1` [Cmpd 63, (7R)-7-[(Phenylacetyl)amino]-3-(4-isothiouroniummethylphenylthio)-3-cephem-4-carboxylate, inner salt], the MIC worked out at 4 mg/L. For `O=C(Cc1ccc(Cl)cc1)N[C@@H]1C(=O)N2C(C(=O)O)=C(Sc3cccnc3-c3ccccc3)CS[C@H]12` [Cmpd 84, (7R)-7-[(4-Chlorophenylacetyl)amino]-3-(2-phenylpyridin-3-ylthio)-3-cephem-4-carboxylic acid], the MIC stood at 2 mg/L (≈ 3.72 µM). As for `O=C(Cc1ccccc1)N[C@@H]1C(=O)N2C(C(=O)[O-])=C(Sc3ccc[n+](Cc4ccccc4)c3-c3ccccc3)CS[C@H]12` [Cmpd 83, (7R)-7-[(Phenylacetyl)amino]-3-(2-phenyl-N-benzylpyridin-3-iumthio)-3-cephem-4-carboxylate], the minimal inhibitory concentration (MIC) came to 4 mg/L (≈ 6.74 µM). Take `N=C(NCCN1CCOCC1)SCc1ccc(SC2=C(C(=O)O)N3C(=O)[C@@H](NC(=O)Cc4ccccc4)[C@H]3SC2)c(I)c1` [Cmpd 61, (7R)-7-[(Phenylacetyl)amino]-3-(4-(N-morpholinoethyl)isothiouroniummethyl-2-iodophenylthio)-3-cephem-4-carboxylate, inner salt]: the MIC worked out at 4 mg/L.

In the case of `O=C(Cc1ccccc1)N[C@@H]1C(=O)N2C(C(=O)O)=C(Sc3ccccc3-n3cccn3)CS[C@H]12` [Cmpd 132, (7R)-7-[(Phenylacetyl)amino]-3-(2-(pyrazol-1-yl)phenylthio)-3-cephem-4-carboxylic acid], the MIC was found to be 8 mg/L (≈ 16.2 µM).

Turning to `CN=C(N)SCc1ccccc1SC1=C(C(=O)O)N2C(=O)[C@@H](NC(=O)Cc3ccccc3)[C@H]2SC1` [Cmpd 76, (7R)-7-[(Phenylacetyl)amino]-3-(2-N-methylisothiouroniummethylphenylthio)-3-cephem-4-carboxylate, inner salt], the minimum inhibitory concentration (MIC) is 2 mg/L. Regarding `Cn1cc[n+](Cc2ccoc2-c2ccccc2SC2=C(C(=O)[O-])N3C(=O)[C@@H](NC(=O)Cc4ccccc4)[C@H]3SC2)c1` [Cmpd 48, (7R)-7-[(Phenylacetyl)amino]-3-(2-(3-(N-methylimidazoliummethyl)furan-2-yl)phenylthio)-3-cephem-4-carboxylic acid], the MIC was found to be 4 mg/L (≈ 6.82 µM). `COc1ccc(CC(=O)N[C@@H]2C(=O)N3C(C(=O)O)=C(Sc4ccccc4I)CS[C@H]23)cc1` [Cmpd 29, (7R)-7-[(p-Methoxyphenylacetyl)amino]-3-(o-iodophenylthio)-3-cephem-4-carboxylic acid]: the MIC is 1 mg/L (≈ 1.72 µM). As for `O=C(Cc1ccccc1)N[C@@H]1C(=O)N2C(C(=O)O)=C(Sc3ccccc3Br)CS[C@H]12` [Cmpd 4, (7R)-7-[(Phenylacetyl)amino]-3-(o-bromophenylthio)-3-cephem-4-carboxylic acid], the MIC is 1 to 2 mg/L (≈ 1.98 to 3.96 µM). For `O=C(Cc1ccccc1)N[C@@H]1C(=O)N2C(C(=O)O)=C(Sc3cc(Cl)ccc3Cl)CS[C@H]12` [Cmpd 16, (7R)-7-[(Phenylacetyl)amino]-3-(2,5-dichlorophenylthio)-3-cephem-4-carboxylic acid], the MIC is less than 0.5 mg/L.

With `O=C(Cc1ccccc1)N[C@@H]1C(=O)N2C(C(=O)O)=C(Sc3ccccc3-c3cnco3)CS[C@H]12` [Cmpd 95, (7R)-7-[(Phenylacetyl)amino]-3-(2-oxazol-5-ylphenylthio)-3-cephem-4-carboxylic acid], the MIC was 4 mg/L (≈ 8.1 µM).

For the compound `NC(=NC1CC1)SCc1ccccc1SC1=C(C(=O)O)N2C(=O)[C@@H](NC(=O)Cc3ccccc3)[C@H]2SC1` [Cmpd 79, (7R)-7-[(Phenylacetyl)amino]-3-(2-N-cyclopropylisothiouroniummethylphenylthio)-3-cephem-4-carboxylate, inner salt], the minimum inhibitory concentration (MIC) was determined as 4 mg/L. Consider `N#Cc1ccccc1SC1=C(C(=O)O)N2C(=O)[C@@H](NC(=O)/C(=N\OC3CCCC3)c3csc(N)n3)[C@H]2SC1` [Cmpd 53, (7R)-7-[(Z)-2-(aminothiazol-4-yl)-2-(cyclopentyloxyimino)acetamido]-3-(2-cyanophenylthio)-3-cephem-4-carboxylic acid], for which the MIC is 4 mg/L (≈ 7.01 µM). As for `N=C(N)NC(=N)SCc1ccc(SC2=C(C(=O)O)N3C(=O)[C@@H](NC(=O)Cc4ccccc4)[C@H]3SC2)c(I)c1` [Cmpd 60, (7R)-7-[(Phenylacetyl)amino]-3-(4-(N-amidino)isothiouroniummethyl-2-iodophenylthio)-3-cephem-4-carboxylate, inner salt], the MIC amounted to 0.5 mg/L.

Consider `O=C(Cc1ccccc1)N[C@@H]1C(=O)N2C(C(=O)O)=C(Sc3ccc(-c4ccccc4)cc3Br)CS[C@H]12` [Cmpd 11, (7R)-7-[(Phenylacetyl)amino]-3-(2-bromo-4-biphenylthio)-3-cephem-4-carboxylic acid], for which the MIC is 1 mg/L (≈ 1.72 µM).
